Source: patent publication US12219938B2, “Mouse model of alcohol-induced liver cancer” (UNIVERSITY OF FLORIDA RESEARCH FOUNDATION, INCORPORATED, priority 2020, dated 2025)
Entries after “also recorded” stand apart in the source; their conditions may differ.

How the values were obtained:
[1] = tested on: SASP genes, liver cancer markers (Gpc3 and Afp), oncogenes (Myc, Tgfa); assay: Western blotting and Q-RT-PCR of senescence, liver cancer marker and oncogene expression in STZ/EtOH-treated livers; type: in vivo, mice
Description: (§1) PROTACs are bivalent small molecules containing a ligand that recognizes a target protein linked to another ligand that recruits a specific E3 ubiquitin ligase.^46,47 PROTAC binding induces proximity-induced ubiquitination of the target protein and its subsequent degradation by proteasomes. PROTACs act catalytically to induce protein degradation in a sub-stoichiometric manner. They result in less drug exposure and reduced toxicity compared with traditional inhibitors since their effect is not limited by equilibrium occupancy. […] PROTAC technology was used to develop a Bcl-xL specific PROTAC (Bcl-xL-P), which targets Bcl-xL to the E3 ligase cereblon (CRBN) or VHL. ES ligases cereblon and VHL are poorly expressed in platelets.^51-53Bcl-xL and Bcl-2 dual PROTACs/degraders that link to the VHL ligand and target Bcl-xL and Bcl-2 to VHL for ubiquitination and proteasome degradation were also developed. These Bcl-xL and Bcl-2 dual PROTACs/degraders are not only potent antitumor agents but also effective senolytic agents. PROTAC 753B targets Bcl-xL and Bcl-2 for proteasome degradation by linking to E3 ligase VHL. […] We examined the effect of 753B on EtOH-induced hepatocarcinogenesis. 753B was administered through intraperitoneal injection at 5 mg/kg body weight every other day starting at one week after alcohol consumption. In parallel experiments, vehicle-treated control animals received a compound that could not interact with the VHL E3 ligase. […] Magnetic resonance imaging (MRI) can allow precise and accurate quantification of tumour volume. Therefore, we performed abdominal Mill examinations before or after Gd-chelate-enhanced MRI. HCC lesions were identified based on hypointense signals in T1 and hyperintense signals in T2-weighted scan at 6 months after EtOH feeding in the diabetic murine livers. In contract few lesions were found in EtOH fed animals treated with 753B (FIG. 16D). These Mill signals matched morphological evaluations of liver cancers in the sacrificed animals (FIG. 16E). […] Ratio of liver to body weight is an indicator of hepatocyte proliferation during liver regeneration and liver cancer development.

senescent cells [2] = assay: X-gal staining for SA-β-galactosidase activity in STZ/EtOH-treated livers; type: in vivo, mice; settings: 753B/EtOH-treated diabetic livers vs vehicle-treated controls
EtOH-HCC = assay: EtOH-induced hepatocarcinogenesis in STZ-treated diabetic mice (MRI and morphological evaluation of tumors); type: in vivo
Description: Fujii et al. developed NASH-derived HCC model (STAM model) using STZ and HFD32.^15 This model replicates clinicopathological processes from fatty liver, NASH, fibrosis to HCC under diabetic background. The very high fat diet (HFD: 60% kcal fat) in combination with STZ also could induced morphologically detectable protrusion of liver tumor nodules at postnatal week 16. We have established a novel model in which ASH-associated liver cancer occurs in STZ-treated mice within 6 months after start of alcohol consumption (FIG. 2, 12). Mice were administered STZ on day two after birth. The STZ was administered in a dose sufficient to kill insulin-producing cells, and lead to diabetic mice. The streptozotocin-treated mice were then fed a Lieber-Decarli alcohol-liquid diet (EtOH) for four months starting at 8 weeks of age. Streptozotocin (200 μg/pup) was given through subcutaneous injection into mice at postnatal day 2. This dose was used to induce pre-diabetic condition in treated mice. This alcohol-liquid diet is from Bio-Sery (F1258) and EtOH is added into the liquid diets daily.
as §1

senescent cells [3] = assay: Senolytic activity in livers of aging and STZ/HFD-treated mice; type: in vivo; settings: data not shown
liver fibrosis = assay: Myofibroblast activation and liver fibrosis during EtOH-associated hepatocarcinogenesis in diabetic mice; type: in vivo
Description: Fibrosis is characterized by myofibroblast cell activation and excessive collagen deposition. Extensive fibrotic reaction has been reported during NASH to HCC transition through the chemical and dietary intervention by STZ/HFD cotreatment.^4 We compared effects of 753B and control compound on liver fibrosis in the diabetic animals after 5-month drug administration. […] Decreased liver fibrosis was further verified after quantitative measurement of collagen content based on hydroxyproline assay in livers exposed to 753B administration (1031.8±116.4 versus 721.2±215.0) (FIG. 17D). Ishak score of the liver tissue in the livers were also analyzed. Grade 0 has no fibrosis. Grade 1 has fibrous expansion of some portal areas, with or without short fibrous septa. Grade 2 contains fibrous expansion of most portal areas, with or without short fibrous septa. Grade 3 has fibrous expansion of most portal areas with an occasional portal to portal bridging. Grade 4 contains fibrous expansion of portal areas with marked bridging including portal-portal and portal-central bridging. Grade 5 has marked portal-portal and portal-central bridging with occasional nodules (incomplete cirrhosis). Grade 6 has cirrhosis, probable or define.

Bcl-xL = target: T1, Bcl-xL (Mus musculus, UniProt Q64373); assay: Western blotting of Bcl-xL in STZ/EtOH-treated diabetic livers; type: in vivo, mice; settings: 5 mg/kg i.p. every other day, five-month administration, 6-month feeding of 5% ethanol, vs vehicle controls
T1 construct: from tissue; host or cells: liver of STZ/EtOH-treated diabetic mice
T1 sequence (Q64373 whole entry): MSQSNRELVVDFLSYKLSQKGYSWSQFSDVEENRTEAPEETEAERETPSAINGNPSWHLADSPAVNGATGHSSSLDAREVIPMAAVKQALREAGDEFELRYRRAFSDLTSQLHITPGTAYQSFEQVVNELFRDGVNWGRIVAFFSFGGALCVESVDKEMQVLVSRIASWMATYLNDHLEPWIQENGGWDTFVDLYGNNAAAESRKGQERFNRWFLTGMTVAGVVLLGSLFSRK
Description: PROTACs are bivalent small molecules containing a ligand that recognizes a target protein linked to another ligand that recruits a specific E3 ubiquitin ligase.^46,47 PROTAC binding induces proximity-induced ubiquitination of the target protein and its subsequent degradation by proteasomes. PROTACs act catalytically to induce protein degradation in a sub-stoichiometric manner. They result in less drug exposure and reduced toxicity compared with traditional inhibitors since their effect is not limited by equilibrium occupancy. […] PROTAC technology was used to develop a Bcl-xL specific PROTAC (Bcl-xL-P), which targets Bcl-xL to the E3 ligase cereblon (CRBN) or VHL. ES ligases cereblon and VHL are poorly expressed in platelets.^51-53Bcl-xL and Bcl-2 dual PROTACs/degraders that link to the VHL ligand and target Bcl-xL and Bcl-2 to VHL for ubiquitination and proteasome degradation were also developed. These Bcl-xL and Bcl-2 dual PROTACs/degraders are not only potent antitumor agents but also effective senolytic agents. PROTAC 753B targets Bcl-xL and Bcl-2 for proteasome degradation by linking to E3 ligase VHL. […] We examined the effect of 753B on EtOH-induced hepatocarcinogenesis. […] Magnetic resonance imaging (MRI) can allow precise and accurate quantification of tumour volume. […]

[4] = Q-RT-PCR, 753B/EtOH-treated diabetic livers vs vehicle-treated controls
[5] = STZ/EtOH-treated livers, 5 mice per group
[6] = 5-month drug administration, vs controls

For Cc1ncsc1-c1ccc([C@H](C)NC(=O)[C@@H]2C[C@@H](O)CN2C(=O)[C@@H](NC(=O)CCCCCCC(=O)N2CCN(C[C@]3(C)CCC(c4ccc(Cl)cc4)=C(CN4CCN(c5ccc(C(=O)NS(=O)(=O)c6ccc(N[C@H](CCN7CCOCC7)CSc7ccccc7)c(S(=O)(=O)C(F)(F)F)c6)cc5)CC4)C3)CC2)C(C)(C)C)cc1 [753B], the “Gpc3 protein expression (Western blotting)” value ([1]; 5 mg/kg i.p. every other day, five-month administration, diabetic livers, 6-month feeding of 5% ethanol) was “reduced Gpc3 expression; also recorded: blocked induction”, the “mRNA levels of SASP genes (Cdkn2a/p16, Cdkn2b/p15, Ccl2, Ccl11, Serpine1/PAI1, Ccl12)” value [1, 4] was “significant reduction; also recorded: inhibited mRNA levels” and the “mRNA levels of liver cancer markers (Gpc3 and Afp)” value [1, 4] was “significant reduction; also recorded: inhibited mRNA levels”. For the same compound, the “mRNA levels of oncogenes (Myc and Tgfa)” value [1, 4] was “significant reduction”, the “senescence by SA-β-gal activity (X-gal staining)” value (senescent cells [2]) was “little senescence; also recorded: inhibited senescent cell accumulation” and the “formation of tumor nodules, number” value (EtOH-HCC; [5]) was “efficiently inhibited”. The “formation of tumor nodules, volume” value (EtOH-HCC; [5]) was “efficiently inhibited”, the “ratio of liver to body weight” value (EtOH-HCC; STZ/EtOH-treated mice, 5 mice per group) was “significantly decreased” and the “HCC lesions in MRI” value (EtOH-HCC; T1/T2-weighted scan at 6 months after EtOH feeding) was “few lesions”. The “tumor size (diameter) of the majority of tumors” value (EtOH-HCC; morphological evaluation, STZ/EtOH-treated livers) was “small in size (<2 mM and 2-5 mm)”, the “senolytic activity in livers” value (senescent cells [3]) was “high senolytic activity” and the “collagen deposition (Sirius red staining and Western analysis)” value (liver fibrosis; [6]) was “significantly lower; also recorded: little collagen deposition”. The “myofibroblast activation (aSMA immunofluorescent staining and Western blotting)” value (liver fibrosis; [6]) was “significantly reduced; also recorded: few myofibroblast activation”, the “mRNA of fibrosis-related markers (aSMA, Col1a1, Col1a2, Col4a1, Col4a2, Tgf-b2, Ctgf, Pdgf-b, Spp1)” value (liver fibrosis; Q-RT-PCR, diabetic animals after 5-month drug administration, vs control compound) was “significant downregulation; also recorded: lower levels” and the “aSMA and pro-collagen type I proteins (Western blotting)” value (liver fibrosis; STZ/EtOH/753B-treated livers) was “low levels”. For the same compound, the “Ishak score of liver fibrosis” value (liver fibrosis; vs controls, 5-6 livers per group) was “significantly decreased; also recorded: lower levels” and the “Bcl-xL accumulation (Western blotting)” value (Bcl-xL) was “effectively inhibited Bcl-xL accumulation”.
